The subject of the assay is VEGF-stimulated HUVEC proliferation (Human Umbilical Vein Endothelial cells). Description: HUVEC Proliferation Assay. Conditions: VEGF 50 ng/mL, 72 h, CyQuant fluorescent dye, read-out: inhibited VEGF-stimulated HUVEC proliferation at a level. The format is cell-based. The method, then: Human Umbilical Vein Endothelial cells are purchased from Clonetics, Inc., as cryopreserved cells harvested from a pool of donors. These cells, at passage 1, are thawed and expanded in EBM-2 complete medium, until passage 2 or 3. The cells are trypsinized, washed in DMEM+10% FBS+antibiotics, and spun at 1000 rpm for 10 min. Prior to centrifugation of the cells, a small amount is collected for a cell count. After centrifugation, the medium is discarded, and the cells are resuspended in the appropriate volume of DMEM+10% FBS+antibiotics to achieve a concentration of 3×10^5 cells/mL. Another cell count is performed to confirm the cell concentration. The cells are diluted to 3×10^4 cells/mL in DMEM+10% FBS+antibiotics, and 100 μL of cells are added to a 96-well plate. The cells are incubated at 37° C. for 22 h.
Prior to the completion of the incubation period, compound dilutions are prepared. Five-point, five-fold serial dilutions are prepared in DMSO, at concentrations 400-fold greater than the final concentrations desired. 2.5 μL of each compound dilution are diluted further in a total of 1 mL DMEM+10% FBS+antibiotics (400× dilution). Medium containing 0.25% DMSO is also prepared for the 0 μM compound sample. At the 22 h time point, the medium is removed from the cells, and 100 μL of each compound dilution is added. The cells are incubated at 37° C. for 2-3 h.
During the compound pre-incubation period, the growth factors are diluted to the appropriate concentrations. Solutions of DMEM+10% FBS+antibiotics, containing either VEGF or bFGF at the following concentrations: 50, 10, 2, 0.4, 0.08, and 0 ng/mL are prepared. For the compound-treated cells, solutions of VEGF at 550 ng/mL or bFGF at 220 ng/mL for 50 ng/mL or 20 ng/mL final concentrations, respectively, are prepared since 10 μL of each will be added to the cells (110 μL final volume). At the appropriate time after adding the compounds, the growth factors are added. VEGF is added to one set of plates, while bFGF is added to another set of plates. For the growth factor control curves, the media on wells B4-G6 of plates 1 and 2 are replaced with media containing VEGF or bFGF at the varying concentrations (50-0 ng/mL). The cells are incubated at 37° C. for an additional 72 h.
At the completion of the 72 h incubation period, the medium is removed, and the cells are washed twice with PBS. After the second wash with PBS, the plates are tapped gently to remove excess PBS, and the cells are placed at −70° C. for at least 30 min. The cells are thawed and analyzed using the CyQuant fluorescent dye (Molecular Probes C-7026), following the manufacturer's recommendations. The plates are read on a Victor/Wallac 1420 workstation at 485 nm/530 nm (excitation/emission). Raw data are collected and analyzed using a 4-parameter fit equation in XLFit. IC50 values are then determined.
For the molecule `O=C(Nc1ccc2c(c1)NCC21CC1)c1cccnc1NCc1ccnc2[nH]ccc12` [Example 8], the IC50 was less than 500 nM.

As for `CC1(C)CNCc2cc(NC(=O)c3cccnc3NCc3ccnc4[nH]ccc34)cnc21` [Example 11], the IC50 was less than 500 nM.

Turning to `O=C(Nc1ccc(C(O)(C(F)(F)F)C(F)(F)F)cc1)c1cccnc1NCc1ccnc2[nH]ccc12` [Example 17, 2-[(1H-Pyrrolo[2,3-b]pyridin-4-ylmethyl)amino]-N-{4-[2,2,2-trifluoro-1-hydroxy-1-(trifluoromethyl)ethyl]phenyl}nicotinamide], the IC50 was less than 500 nM.

For `O=C(Nc1cccc(C(OC[C@@H]2CCCN2)(C(F)(F)F)C(F)(F)F)c1)c1cccnc1NCc1ccnc2[nH]ccc12` [Example 19, (S)-2-((1H-pyrrolo[2,3-b]pyridin-4-yl)methylamino)-N-(3-(1,1,1,3,3,3-hexafluoro-2-(pyrrolidin-2-ylmethoxy)propan-2-yl)phenyl)nicotinamide], the IC50 is less than 500 nM.

As to `O=C(Nc1ccc(C(OC[C@@H]2CCCN2)(C(F)(F)F)C(F)(F)F)cc1)c1cccnc1NCc1ccnc2[nH]ccc12` [Example 20, (S)-2-((1H-pyrrolo[2,3-b]pyridin-4-yl)methylamino)-N-(4-(1,1,1,3,3,3-hexafluoro-2-(pyrrolidin-2-ylmethoxy)propan-2-yl)phenyl)nicotinamide], the IC50 is less than 500 nM.

For `CC1(C)CN(C(=O)[C@@H]2CCN2)c2cc(NC(=O)c3cccnc3NCc3ccnc4[nH]ccc34)ccc21` [Example 23, N-{1-[(2S)-Azetidin-2-ylcarbonyl]-3,3-dimethyl-2,3-dihydro-1H-indol-6-yl}-2-[(1H-pyrrolo[2,3-b]pyridin-4-ylmethyl)amino]nicotinamide], the IC50 was less than 500 nM.

For the molecule `CC1(C)CNCc2cc(NC(=O)c3cccnc3NCc3ccnc4c3CCN4)ccc21` [Example 25, 2-[(2,3-Dihydro-1H-pyrrolo[2,3-b]pyridin-4-ylmethyl)amino]-N-(4,4-dimethyl-1,2,3,4-tetrahydroisoquinolin-7-yl)nicotinamide], the IC50 is less than 500 nM.

Turning to `CN1CCC[C@H]1COc1cc(NC(=O)c2cccnc2NCc2ccnc3[nH]ccc23)cc(C(F)(F)F)c1` [Example 35, N-[3-{[(2S)-1-methylpyrrolidin-2-yl]methoxy}-5-(trifluoromethyl)phenyl]-2-[(1H-pyrrolo[2,3-b]pyridin-4-ylmethyl)amino]nicotinamide], the IC50 is less than 500 nM.

Regarding `Cc1nc2cc(NC(=O)c3ccc(F)nc3NCc3ccnc4[nH]ccc34)ccc2s1` [Example 37, 2-((1H-Pyrrolo[2,3-b]pyridin-4-yl)methylamino)-6-fluoro-N-(2-methylbenzo[d]thiazol-5-yl)nicotinamide], the IC50 is less than 500 nM.

In the case of `COC(c1ccc(NC(=O)c2cccnc2NCc2ccnc3[nH]ccc23)cc1)(C(F)(F)F)C(F)(F)F` [Example 44, 2-[(1H-Pyrrolo[2,3-b]pyridin-4-ylmethyl)-amino]-N-[4-(2,2,2-trifluoro-1-methoxy-1-trifluoromethyl-ethyl)-phenyl]-nicotinamide], the IC50 is less than 500 nM.

Take `O=C(Nc1ccc(C(F)(F)C(F)(F)F)c(CN2CCNCC2)c1)c1cccnc1NCc1ccnc2[nH]ccc12` [Example 45, N-(4-Pentafluoroethyl-3-piperazin-1-ylmethyl-phenyl)-2-[(1H-pyrrolo[2,3-b]pyridin-4-ylmethyl)-amino]-nicotinamide]: the IC50 was less than 500 nM.

For the molecule `CN1CCN(Cc2cc(NC(=O)c3cccnc3NCc3ccnc4[nH]ccc34)ccc2C(F)(F)C(F)(F)F)CC1` [Example 46, N-[3-(4-Methyl-piperazin-1-ylmethyl)-4-pentafluoroethyl-phenyl]-2-[(1H-pyrrolo[2,3-b]pyridin-4-ylmethyl)-amino]-nicotinamide], the IC50 was less than 500 nM.

Regarding `O=C(Nc1cc(O[C@@H]2CCOC2)cc(C(F)(F)F)c1)c1cccnc1NCc1ccnc2[nH]ccc12` [Example 47, 2-[(1H-pyrrolo[2,3-b]pyridin-4-ylmethyl)amino]-N-[3-[(3R)-tetrahydrofuran-3-yloxy]-5-(trifluoromethyl)phenyl]nicotinamide], the IC50 is less than 500 nM.

As for `O=C(Nc1ccc2ncccc2c1)c1cccnc1NCc1ccnc2[nH]ccc12` [Example 53, 2-[(1H-Pyrrolo[2,3-b]pyridin-4-ylmethyl)-amino]-N-quinolin-6-yl-nicotinamide], the IC50 was less than 500 nM.

As to `O=C(Nc1ccc2ccncc2c1)c1cccnc1NCc1ccnc2[nH]ccc12` [Example 55, N-Isoquinolin-7-yl-2-[(1H-pyrrolo[2,3-b]pyridin-4-ylmethyl)-amino]-nicotinamide], the IC50 was less than 500 nM.

Regarding `O=C(Nc1ccc(C(F)(F)F)c(OCC2CCCO2)c1)c1cccnc1NCc1ccnc2[nH]ccc12` (centres unmarked) [Example 57, 2-[(1H-Pyrrolo[2,3-b]pyridin-4-ylmethyl)-amino]-N-[3-(tetrahydro-furan-2-ylmethoxy)-4-trifluoromethyl-phenyl]-nicotinamide], the IC50 is less than 500 nM.

Regarding `CN1CCC(Cc2cc(NC(=O)c3cccnc3NCc3ccnc4[nH]ccc34)cc(C(F)(F)F)c2)CC1` [Example 58, N-[3-(1-Methyl-piperidin-4-ylmethyl)-5-trifluoromethyl-phenyl]-2-[(1H-pyrrolo[2,3-b]pyridin-4-ylmethyl)-amino]-nicotinamide], the IC50 is less than 500 nM.

`O=C(Nc1cc(CCCN2CCOCC2)cc(C(F)(F)F)c1)c1cccnc1NCc1ccnc2[nH]ccc12` [Example 60, N-(3-(3-(4-morpholinyl)propyl)-5-(trifluoromethyl)phenyl)-2-((1H-pyrrolo[2,3-b]pyridin-4-ylmethyl)amino)-3-pyridinecarboxamide]: the IC50 is less than 500 nM.

As to `O=C(Nc1cc(CCCN2CCCCC2)cc(C(F)(F)F)c1)c1cccnc1NCc1ccnc2[nH]ccc12` [Example 62, N-[3-(3-Piperidin-1-yl-propyl)-5-trifluoromethyl-phenyl]-2-[(1H-pyrrolo[2,3-b]pyridin-4-ylmethyl)-amino]-nicotinamide], the IC50 is less than 500 nM.

On to `O=C(Nc1ccc(C(F)(F)C(F)(F)F)c(OCCN2CCCC2)c1)c1cccnc1NCc1ccnc2[nH]ccc12` [Example 63, N-[4-pentafluoroethyl-3-(2-pyrrolidin-1-yl-ethoxy)-phenyl]-2-[(1H-pyrrolo[2,3-b]pyridin-4-ylmethyl)-amino]-nicotinamide], for which the IC50 was less than 500 nM.

Regarding `CC1(C)CCNc2cc(NC(=O)c3cccnc3NCc3ccnc4[nH]ncc34)ccc21` [Example 71, N-(4,4-Dimethyl-1,2,3,4-tetrahydro-7-quinolinyl)-2-((1H-pyrazolo[3,4-b]pyridin-4-ylmethyl)amino)-3-pyridinecarboxamide], the IC50 is less than 500 nM.

Take `CC1(C)CCNc2cc(NC(=O)c3cccnc3NCc3ccnc4c3CC(=O)N4)ccc21` [Example 73, N-(4,4-Dimethyl-1,2,3,4-tetrahydro-quinolin-7-yl)-2-[(2-oxo-2,3-dihydro-1H-pyrrolo[2,3-b]pyridin-4-ylmethyl)-amino]-nicotinamide]: the IC50 is less than 500 nM.

With `Cc1nc2cc(NC(=O)c3cc(F)cnc3NCc3ccnc4[nH]ccc34)ccc2s1` [Example 77, 5-fluoro-N-(2-methyl-1,3-benzothiazol-5-yl)-2-((1H-pyrrolo[2,3-b]pyridin-4-ylmethyl)amino)-3-pyridinecarboxamide], the IC50 was less than 500 nM.

Take `CC(C)(C)c1ccc(NC(=O)c2cc(Cl)cnc2NCc2ccnc3[nH]ccc23)cc1` [Example 88, 5-chloro-N-(4-(1,1-dimethylethyl)phenyl)-2-((1H-pyrrolo[2,3-b]pyridin-4-ylmethyl)amino)-3-pyridinecarboxamide]: the IC50 is less than 500 nM.

For `O=C(Nc1ccc(Cl)c(C(F)(F)F)c1)c1cc(F)cnc1NCc1ccnc2[nH]ccc12` [Example 90, N-(4-chloro-3-(trifluoromethyl)phenyl)-5-fluoro-2-((1H-pyrrolo[2,3-b]pyridin-4-ylmethyl)amino)-3-pyridinecarboxamide], the IC50 was less than 500 nM.

With `O=C(Nc1ccc(Cl)cc1)c1cc(F)cnc1NCc1ccnc2[nH]ccc12` [Example 91, N-(4-chlorophenyl)-5-fluoro-2-((1H-pyrrolo[2,3-b]pyridin-4-ylmethyl)amino)-3-pyridinecarboxamide], the IC50 is less than 500 nM.

For the origin of these results see patent US8247556B2, “Method for preparing 6-substituted-7-aza-indoles” (Amgen Inc., priority 2005, dated 2012).
